Patent US10508085B2, “Compounds and methods for IDO and TDO modulation, and indications therefor” (Plexxikon Inc., priority 2016, dated 2019)
Read-outs that look alike come from different tables or passages of the source. One block for each molecule: values may come before it.

Key:
[1] = molecular target: T1, human IDO (IDO1-expressing HEK293 cells) (Homo sapiens, UniProt P14902); assay: Cell based kynurenine assay, IDO1-expressing HEK293 cell clones
T1 construct: expressed in transfected cells
T1 sequence (P14902 whole entry): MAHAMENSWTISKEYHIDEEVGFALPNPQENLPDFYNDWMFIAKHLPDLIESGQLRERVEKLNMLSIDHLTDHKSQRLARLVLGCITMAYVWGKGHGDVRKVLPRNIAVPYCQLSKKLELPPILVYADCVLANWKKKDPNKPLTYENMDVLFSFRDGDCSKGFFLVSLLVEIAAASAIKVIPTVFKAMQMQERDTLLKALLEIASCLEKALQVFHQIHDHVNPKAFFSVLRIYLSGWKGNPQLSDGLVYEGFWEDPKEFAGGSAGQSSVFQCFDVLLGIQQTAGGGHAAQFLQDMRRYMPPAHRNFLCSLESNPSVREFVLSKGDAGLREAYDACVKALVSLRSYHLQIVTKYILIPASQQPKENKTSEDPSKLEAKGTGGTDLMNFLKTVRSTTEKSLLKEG
Outline: (§1)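 Steps: seed IDO1- or TDO-expressing HEK293 cells at 2.5×10^4 per well; add compound dilutions; incubate 24 h; transfer supernatant and determine kynurenine; derive IC50 via nonlinear regression of percent inhibition.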

[2] = molecular target: T2, Human Tryptophan 2,3-dioxygenase (TDO) (Homo sapiens, UniProt P48775); assay: Human TDO enzymatic assay (kynurenine level); format: biochemical
T2 construct: His tag (N); made in house; host or cells: E. coli
T2 sequence (P48775 whole entry): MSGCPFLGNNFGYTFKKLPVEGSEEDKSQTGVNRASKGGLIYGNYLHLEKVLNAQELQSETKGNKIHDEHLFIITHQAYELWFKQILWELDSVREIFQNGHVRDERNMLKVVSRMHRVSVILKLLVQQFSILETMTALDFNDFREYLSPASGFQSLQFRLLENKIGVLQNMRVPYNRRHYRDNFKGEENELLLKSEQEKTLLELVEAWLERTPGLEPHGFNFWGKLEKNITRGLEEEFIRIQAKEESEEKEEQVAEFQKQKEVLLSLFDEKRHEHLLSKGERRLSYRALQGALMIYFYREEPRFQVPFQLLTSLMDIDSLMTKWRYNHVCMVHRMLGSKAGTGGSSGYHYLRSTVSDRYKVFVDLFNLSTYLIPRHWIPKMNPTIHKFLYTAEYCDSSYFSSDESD
Outline: (§2)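 IDO conditions: 6 nM His-IDO, 10 μM L-Trp, 5 μM methylene blue, 20 min, RT. TDO conditions: 1 nM His-TDO, 350 μM L-Trp, 0.4 μM methylene blue, 70 min, RT. Both used pH 6.5 phosphate plus ascorbate/catalase, TCA stop at 50° C, kynurenine readout, nonlinear-regression IC50.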

[3] = molecular target: T3, Human Indoleamine 2,3-dioxygenase (IDO) (Homo sapiens, UniProt P14902); assay: Human IDO enzymatic assay (kynurenine level); format: biochemical
T3 construct: His tag (N); made in house; host or cells: E. coli
T3 sequence (P14902 whole entry): as the sequence (P14902 whole entry) above
Outline: as §2

[4] = molecular target: T4, human TDO (TDO-expressing HEK293 cells) (Homo sapiens, UniProt P48775); assay: Cell based kynurenine assay, TDO-expressing HEK293 cell clones
T4 construct: expressed in transfected cells
T4 sequence (P48775 whole entry): as the sequence (P48775 whole entry) above
Outline: as §1

[5] = IDO1-expressing HEK293 cells, 24 hours, geometric mean, read-out: HEK293 IDO1 Kynurenine GMean IC50 (μM) (Cellular Assay)
[6] = 1 nM TDO, 350 μM L-Trp, geometric mean, read-out: TDO GMean: IC50 (μM) (Biochemical Assay)
[7] = 6 nM IDO, 10 μM L-Trp, geometric mean, read-out: IDO1 GMean: IC50 (μM) (Biochemical Assay)
[8] = TDO-expressing HEK293 cells, 24 hours, geometric mean, read-out: HEK293 TDO Kynurenine GMean IC50 (μM) (Cellular Assay)
[9] = cellular assay, HEK293, 24 hours, comparative examples, read-out: hIDO1
[10] = biochemical assay, comparative examples, 4,6 versus 5,7 indazole, read-out: TDO
[11] = biochemical assay, comparative examples, 4,6 versus 5,7 indazole, read-out: IDO1
[12] = cellular assay, HEK293, 24 hours, comparative examples, read-out: hTDO

Compound: OC(c1cc(Cl)cc2cn[nH]c12)C1CCCCC1 (centres unmarked) [drawing 810]
- IC50 [1, 9]: 0.23 µM
- IC50 [2, 10]: 0.17 µM
- IC50 [3, 11]: 0.05 µM
- IC50 [4, 12]: 1.2 µM

Compound: COC12CCC(C(O)c3cc(Cl)cc4cn[nH]c34)(CC1)CC2 (centres unmarked) [drawing 812]
- IC50 [1, 9]: 0.08 µM
- IC50 [2, 10]: 1.18 µM
- IC50 [3, 11]: 0.11 µM
- IC50 [4, 12]: 2.63 µM

Compound: CC(C)(C1CCN(S(C)(=O)=O)CC1)C(O)c1cc(Cl)cc2cn[nH]c12 (centres unmarked) [drawing 814]
- IC50 [1, 9]: 0.08 µM
- IC50 [2, 10]: 0.15 µM
- IC50 [3, 11]: 0.03 µM
- IC50 [4, 12]: 0.42 µM

Compound: CC(C)(C1CCOCC1)C(O)c1cc(Cl)cc2cn[nH]c12 (centres unmarked) [drawing 816]
- IC50 [1, 9]: 0.08 µM
- IC50 [2, 10]: 1.18 µM
- IC50 [3, 11]: 0.11 µM
- IC50 [4, 12]: 2.63 µM

Compound: CC(C)(C1CCOCC1)C(O)c1cc(Cl)cc2[nH]ncc12 (centres unmarked) [drawing 817]
- IC50 [1, 9]: 6.94 µM
- IC50 [2, 10]: 0.08 µM
- IC50 [3, 11]: 0.95 µM
- IC50 [4, 12]: 0.01 µM

Compound: OC1(c2cc(Cl)cc3cn[nH]c23)CC2(CCOCC2)C1 [drawing 820]
- IC50 [1, 9]: 0.4 µM
- IC50 [2, 10]: 0.22 µM
- IC50 [3, 11]: 0.16 µM
- IC50 [4, 12]: 2.41 µM

Further lines, results first:

- IC50 [1, 5]: 0.0001 to 10 µM
- IC50 [2, 6]: 0.0001 to 10 µM
- IC50 [3, 7]: 0.0001 to 10 µM
- IC50 [4, 8]: 0.0001 to 10 µM
Compound: CC(C)(C1CCN(C(=O)NC[C@@H]2CCCO2)CC1)[C@H](O)c1cc(Cl)cc2cn[nH]c12 [Compound P-0566, 4-((S)-1-(5-chloro-1H-indazol-7-yl)-1-hydroxy-2-methylpropan-2-yl)-N-(((S)-tetrahydrofuran-2-yl)methyl)piperidine-1-carboxamide]

- IC50 [1, 5]: 0.0001 to 10 µM
- IC50 [2, 6]: 0.0001 to 10 µM
- IC50 [3, 7]: 0.0001 to 10 µM
- IC50 [4, 8]: 0.0001 to 10 µM
Compound: CCCNC(=O)N1CCC(C(C)(C)[C@H](O)c2cc(Cl)cc3cn[nH]c23)CC1 [Compound P-0567, (S)-4-(1-(5-chloro-1H-indazol-7-yl)-1-hydroxy-2-methylpropan-2-yl)-N-propylpiperidine-1-carboxamide]

- IC50 [1, 5]: 0.0001 to 10 µM
- IC50 [2, 6]: 0.0001 to 10 µM
- IC50 [3, 7]: 0.0001 to 10 µM
- IC50 [4, 8]: 0.0001 to 10 µM
Compound: C#CCNC(=O)N1CCC(C(C)(C)[C@H](O)c2cc(Cl)cc3cn[nH]c23)CC1 [Compound P-0568, (S)-4-(1-(5-chloro-1H-indazol-7-yl)-1-hydroxy-2-methylpropan-2-yl)-N-(prop-2-yn-1-yl)piperidine-1-carboxamide]

- IC50 [1, 5]: 0.0001 to 10 µM
- IC50 [2, 6]: 0.0001 to 10 µM
- IC50 [3, 7]: 0.0001 to 10 µM
- IC50 [4, 8]: 0.0001 to 10 µM
Compound: CC(C)(C1CCN(C(=O)Nc2cccc(C#N)c2)CC1)[C@H](O)c1cc(Cl)cc2cn[nH]c12 [Compound P-0569, (S)-4-(1-(5-chloro-1H-indazol-7-yl)-1-hydroxy-2-methylpropan-2-yl)-N-(3-cyanophenyl) piperidine-1-carboxamide]

- IC50 [1, 5]: 0.0001 to 10 µM
- IC50 [2, 6]: 0.0001 to 10 µM
- IC50 [3, 7]: 0.0001 to 10 µM
- IC50 [4, 8]: 0.0001 to 10 µM
Compound: CC(C)(C1CCN(C(=O)Nc2ccc(C#N)nc2)CC1)C(O)c1cc(Cl)cc2cn[nH]c12 (centres unmarked) [Compound P-0570, 4-(1-(5-chloro-1H-indazol-7-yl)-1-hydroxy-2-methylpropan-2-yl)-N-(6-cyanopyridin-3-yl)piperidine-1-carboxamide]
